# From US20040077080A1, “Compositions and methods for induction of proteins involved in xenobiotic metabolism” (priority 2000, published 2004)
# Like-named read-outs stand apart in the source and are kept apart here.
# Assays:
# CYP1A1 mRNA [1] = test: Northern blot of CYP1A1 mRNA in HepG2 cells
# Experimental: HepG2 cells were obtained from American Type Culture Collection (ATCC). Cells were grown in DMEM (Gibco/BRL). Twenty-four hours after cells were plated and grown to confluency, they were treated with one of the bioflavonoids, TCDD, or beta-naphthoflavone (Sigma). All inducers were dissolved in DMSO and this solvent was added to control cells at 0.1%.
# (§1) Total RNA from hepatocytes or HepG2 cells was isolated using Trizol™ reagent (Gibco BRL Products, Gaithersburg, Md.) and quantified by measuring absorbance at 260 nm; purity was assessed by determining the 260/280 nm ratio. […] A cDNA probe for human 18S RNA probe (Ambion, Austin Tex.) was used to normalize the amount of RNA loaded in each lane. […] Autoradiographs of Northern blots were quantified by densitometry using a Model GS-670 Imaging Densitometer equipped with Molecular Analysis/Mac version 1.1.1. Image Analysis software (BioRad laboratories, Hercules, Calif.) or by scaning autoradiograms with a ScanMaker II (Microtek) and digitized with Un-Scan-It software (Silk Scientific, Orem Utah). Exposure times used were in the linear range of the film, Kodak XAR-5.
# CYP1A1 mRNA [2] = test: Northern blot of CYP1A1 mRNA in primary cultures of human hepatocytes (Example II); details: hepatocytes
# Experimental: Six well plates containing human hepatocytes were obtained from the Liver Tissue Procurement and Distribution System (LTPADS, University of Minnesota, Minneapolis, Minn.). […] All inducers were dissolved in DMSO and added to media at a 0.1% final concentration of this reagent. After treatment, media was removed and cells harvested for RNA isolation.
# as §1
# [3] = system: PXR / mdr1(dr4) response element; test: Hep-PXR/Pgp-Luc stable cell luciferase assay; details: 48 hours; for dose dependence of luciferase induction (in words): Hep-PXR/Pgp-Luc cells; for strength of luciferase induction (in words): Hep-PXR/PgpLuc cells, omeprazole 100 micromoles per liter versus rifampicin 10 micromoles per liter
# Experimental: (§2) FIG. 35 depicts dose-response behavior to various PXR activators in stable cell lines overexpressing PXR and harboring DR4 response element. FIG. 35A: Results are shown for the stable cell line Hep-PXR/PgpLuc. FIG. 35B: Results are shown for the stable cell line Caco-PXR/PgpLuc.
# (§3) Cells were exposed to the test compounds for 48 hours at the concentrations indicated.
# FIG. 36 depicts the effect of environmental and botanical chemicals on luciferase activity in the stable cell line Hep-PXR/PgpLuc. Cells were inoculated into 96-well plates at a density of 2×10^4 cells per well. After overnight recovery, cells were treated with the test compounds at the concentrations indicated for 48 hours.
# (§4) Establishment of stable transformants containing both PXR and reporter plasmid and development of high throughput bioassay for PXR-dependent transactivation: The stable transformants Hep-PXR/mdr1(dr4)-Luc and Caco-PXR/mdr1(dr4)-Luc cell lines were generated from the parental cell lines HepG-PXR and Caco-PXR, respectively, according to the following procedure. The parental cell lines HepG-PXR and Caco-PXR, which overexpress PXR, were stably transfected with the luciferase reporter plasmid mdr1(dr4)-Luc. The transfected cells were cultured in DMEM (HepG-PXR cells) or in IMEM (Caco-PXR cells), both media supplemented with 10% fetal bovine serum and neomycin (700 micrograms per milliliter).
# (§5) For the induction assay, stable transformants were seeded in 96-wells plates at a density of 1×10^4 cells per well and allowed to recover overnight. Plates were treated with test compounds at varying concentrations, using 3 replicates per dose. After 48 hours of exposure to the test compound, cells were washed with phosphate buffered saline, lysis buffer was applied to the wells, and luciferase substrate added. Following 10 minutes for light adaptation, luminescence was monitored according to the manufacturer's instructions (Packard kit, Biomed).
# MDR1 P-glycoprotein mRNA = test: Northern blot of MDR1 P-glycoprotein expression (Example VI)
# Text: FIG. 31 depicts MDR1 gene expression in LS174T cells as analyzed by Northern blot. […] Total RNA from the colon adenocarcinoma cell line LS174T was isolated and fractionated on a 1% formaldehyde gel and transferred onto a nylon membrane. The RNA blot was hybridized to ^32P-labeled MDR1 cDNA probe (top panel) or 18s rRNA probe for normalization of RNA loading on the gel (bottom panel).
# FIG. 32A: Lanes 1 and 2, primary human hepatocytes; lanes 3 and 4, LS174T cells. FIG. 32B: Lanes 1 and 2, HepG2 cells; lanes 3 and 4, HepG2 that overexpress PXR (Hepg-PXR cells). FIG. 32C: Lanes 1 and 2, Caco-2; lanes 3 and 4, Caco-2 cells that overexpress PXR (Caco-PXR cells).
# Total RNA from the colon adenocarcinoma cell line LS174T was isolated and fractionated on a 1% formaldehyde gel and transferred onto a nylon membrane. The RNA blot was hybridized to ^32-P-labeled MDR1 cDNA probe (top panels), ^32-P-labeled CYP3A4 cDNA probe (middle panels), or 18s rRNA probe for normalization of RNA loading on the gel (bottom panels).
# FIG. 37 depicts MDR1 gene regulation in response to chrysin as studied by Northern blot analysis. […] Total RNA from the hepatocytes was isolated and fractionated on a 1% formaldehyde gel and transferred onto a nylon membrane. The RNA blot was hybridized to ^32-P-labeled MDR1 cDNA probe (top panels), ^32P-labeled CYP3A4 cDNA probe (middle panels), or 18s rRNA probe for normalization of RNA loading on the gel (bottom panels).
# Northern Blot analysis for MDR1 P-glycoprotein and CYP3A4 expression: Total RNA was prepared from cells (primary hepatocytes, LS174T, HepG2, or Caco-2) using Trizol reagent (Invitrogen, Carlsbad, Calif.). For Northern blots, 15 micrograms of total RNA was fractionated on a 1% formaldehyde gel and transferred onto a nylon membrane by capillary transfer. A 530-base pair fragment of MDR1 cDNA was obtained from PCR cloning using the sense primer […] The resulting fragment was ^32P-labeled by random priming (Invitrogen, Carlsbad, Calif.) for use as an MDR1 probe. […] All constructs and cDNAs were subjected to sequence analysis. Hybridization was performed with the ExpressHyb system according to the manufacturer's instructions (Clontech, Palo Alto, Calif.).
# [4] = system: PXR / mdr1(dr4) response element; test: Caco-PXR/Pgp-Luc stable cell luciferase assay; details: Caco-PXR/Pgp-Luc cells, 48 hours
# Experimental: as §2, §3, §4, §5
# [5] = system: AhR (dioxin response elements); test: DRE12-6 luciferase assay (HepG2 with dioxin response elements)
# Experimental: FIG. 25A: DRE12-6 cells were treated for 28 hours with the indicated concentrations of phytochemicals. FIG. 25B: DRE12-6 cells were treated with the indicated chemicals for 3 hours prior to co-treatment with 2,3,7,8-tetrachlorodibenzo-p-dioxin (TCDD) for 28 hours.
# Chemical treatment was followed by cell lysis and luciferase measurement.
# FIG. 26A: DRE12-6 cells were inoculated into a 96-well plate (2×10^4 cells per well) a day prior to treatment and treated for 28 hours with the indicated concentrations of the environmental contaminants (PAHs, PAH derivatives, PCBs, or pesticide derivatives). FIG. 26B: DRE12-6 cells were treated with the indicated chemicals for 3 hours prior to co-treatment with 2,3,7,8-tetrachlorodibenzo-p-dioxin (TCDD) for 28 hours.
# The luciferase-SV40 promoter vector, with the three copies of the dioxin response elements, was transfected into HepG2 cells, which were put under neomycin selection to yield the stable cell line DRE12-6, for detection of AhR-dependent transactivation.
# Luciferase assay: Luciferase assays using the LucLite system (Packard Instrument Co., Meriden, Conn.) were performed according to the manufacturer's instructions. Results were expressed as relative light units or fold induction, relative to DMSO-treated control cells. The data represent the mean±standard deviation of experiments performed in duplicate.
# [6] = system: PXR / CYP3A4 response elements; test: DPX2 (Hepg-hPXR/3A4-Luc) luciferase assay; details: DPX2 cells, 48 hours
# Experimental: Compounds tested included known PXR ligands and conventional drugs (FIG. 30A), environmental contaminants (FIG. 30B), and herbal supplements (FIG. 30C). DPX2 cells were cultured with DMEM supplemented with 10% fetal bovine serum and neomycin. Cells were inoculated into 96-well plate at a density of 1×10^4 cells per well the day before treatment.
# 2. […] In addition, a distal enhancer module, XREM, was amplified by PCR using the sense primer
# The resulting amplified XREM fragment was ligated upstream of PXRE containing a 3A4 promoter, into a luciferase vector.
# A neomycin resistance gene was generated by PCR amplification using the pcDNA3.1 plasmid (Invitrogen, Carlsbad, Calif.), which encodes a neomycin resistant gene, as a DNA template. The sense primer had the sequence […] Amplification was followed by SalI digestion of the PCR product, and the resulting fragment ligated to the SalI-digested PGL3-promoter plasmid, which contains luciferase as a reporter gene. […] The CYP3A4 cell line DPX2 (Hepg-hPXR/3A4-Luc) was established by double transfection with the PXR expression plasmid and the luciferase plasmid containing CYP3A4 PXR response element under selection with both neomycin and hygromycin.
# [7] = system: human CYP1A1 promoter (Ah receptor); test: 101L cell luciferase assay (HepG2 with human CYP1A1 promoter-luciferase), 96-well; details: 101L cells, 18 hours; 1 to 20 micromolar (resveratrol 10, apigenin 5, quercetin and curcumin 20 micromolar); GTE 0.1 milligrams/ml
# Experimental: Cells were initially seeded in flasks containing media without G418. After an overnight incubation the cultures were changed into media containing G418 for antibiotic selection. After three to five days, cells were removed from flasks by trypsinization and replated on either a twenty-four-well plate at a density of 3.5×10^5 cells per well, or a ninety-six-well plate at a density of 7.5×10^4 cells per well, in DMEM media that was replaced with that containing 0.1% FBS and without G418 or indicator (phenol red). The next day, media containing 0.1% FBS and G418 was added to the cultures. […] For the antagonist experiments, cells were co-treated with a flavonoid and two nanomolar TCDD. All inducers were dissolved in DMSO and this reagent was added to control cells at 0.1%. The cells were treated with varous doses and times (six to eighteen hours). After treatment, the media containing the compound was removed by aspiration and replaced with one-hundred microliters per well of DMEM for direct analysis of luciferase activity. Experiments were performed on 101L cells from frozen stocks on the initial derivation and the passage number was limited to thirty.
# Luciferase assays were performed as specified by the manufacturer (LucLite system, Packard Instrument, Meriden, Conn.). Activity was determined using a Packard LumiCount luminometer and results expressed as relative light units or fold increase above control (DMSO treated cells.
# [8] = DRE12-6 cells, test compound 3 hours prior to co-treatment with TCDD for 28 hours
compound,measurement,setting,value
O=c1cc(-c2ccccc2)oc2ccc3ccccc3c12 [beta-naphthoflavone],"HepG2 CYP1A1 mRNA (%), normalized to TCDD induction",CYP1A1 mRNA [1],50%
Oc1ccc(C=Cc2cc(O)cc(O)c2)cc1 [resveratrol],"CYP1A1 mRNA level Subject A (%), normalized to TCDD induction","CYP1A1 mRNA [2]; human, 24 h",5%
same,"CYP1A1 mRNA level Subject B (%), normalized to TCDD induction","CYP1A1 mRNA [2]; human, 24 h",0%
same,"CYP1A1 mRNA level Subject C (%), normalized to benzanthracene induction","CYP1A1 mRNA [2]; human, 24 h",12%
same,"CYP1A1 mRNA level Subject D (%), normalized to TCDD induction","CYP1A1 mRNA [2]; human, 24 h",0%
same,"HepG2 CYP1A1 mRNA (%), normalized to TCDD induction",CYP1A1 mRNA [1]; human,12%
"CC#C[C@]1(O)CC[C@H]2[C@@H]3CCC4=CC(=O)CCC4=C3[C@@H](c3ccc(N(C)C)cc3)C[C@@]21C [RU486, mifepristone]",dose dependence of luciferase induction (in words),[3],dose-dependent luciferase induction
same,MDR1 expression in LS174T cells (in words),"MDR1 P-glycoprotein mRNA; LS174T cells, 48 hours",effectively induced
same,dose dependence of luciferase induction (in words),[4],dose-dependent luciferase induction
same,strength of luciferase induction (in words),[4],strongly induce
C[C@@]12CCC[C@H]1[C@@H]1CC[C@H]3C[C@@H](O)CC[C@]3(C)[C@H]1CC2 [androstanole],dose dependence of luciferase induction (in words),[3],dose-dependent luciferase induction
same,dose dependence of luciferase induction (in words),[4],dose-dependent luciferase induction
O=C1C[C@@H](c2ccc(O)cc2)Oc2cc(O)cc(O)c21 [naringenin],"CYP1A1 mRNA level Subject D (%), normalized to TCDD induction","CYP1A1 mRNA [2]; human, 24 h",0%
same,"HepG2 CYP1A1 mRNA (%), normalized to TCDD induction",CYP1A1 mRNA [1]; human,0%
"Clc1cc(-c2ccccc2)c(Cl)c(Cl)c1Cl [2,3,4,5 tetrachlorobiphenyl]",effect on TCDD-mediated luciferase induction (in words),[5]; [8],effectively inhibited
C[C@@H]1C[C@H]2[C@@H]3CCC4=CC(=O)C=C[C@]4(C)[C@@]3(F)[C@@H](O)C[C@]2(C)[C@@]1(O)C(=O)CO [dexamethasone],dose dependence of luciferase induction (in words),[3],dose-dependent luciferase induction
same,strength of luciferase induction (in words),[3],Weaker luciferase induction
same,dose dependence of luciferase induction (in words),[4],dose-dependent luciferase induction
COc1ccc(C(c2ccc(OC)cc2)C(Cl)(Cl)Cl)cc1 [methoxychlor],strength of luciferase induction (in words),[3],strongly induced
same,luciferase response curve (in words),[6],dose-dependent
same,effect on TCDD-mediated luciferase induction (in words),[5]; [8],effectively inhibited
COc1cc(/C=C/C(=O)CC(=O)/C=C/c2ccc(O)c(OC)c2)ccc1O [curcumin],induction of CYP1A1 mRNA in isolated hepatocytes (in words),CYP1A1 mRNA [2],did not elicit induction
O=c1cc(-c2ccc(O)cc2)oc2cc(O)cc(O)c12 [apigenin],"CYP1A1 mRNA level Subject B (%), normalized to TCDD induction","CYP1A1 mRNA [2]; human, 24 h",0%
same,"CYP1A1 mRNA level Subject C (%), normalized to benzanthracene induction","CYP1A1 mRNA [2]; human, 24 h",3%
same,"CYP1A1 mRNA level Subject D (%), normalized to TCDD induction","CYP1A1 mRNA [2]; human, 24 h",0%
same,"HepG2 CYP1A1 mRNA (%), normalized to TCDD induction",CYP1A1 mRNA [1]; human,1%
same,effect on TCDD-mediated luciferase induction (in words),[5],effectively inhibited
CO[C@H]1/C=C/O[C@@]2(C)Oc3c(C)c(O)c4c(O)c(c(/C=N/N5CCN(C)CC5)c(O)c4c3C2=O)NC(=O)/C(C)=C\C=C\[C@H](C)[C@H](O)[C@@H](C)[C@@H](O)[C@@H](C)[C@H](OC(C)=O)[C@@H]1C [rifampicin],MDR1 P-glycoprotein expression in Hep-PXR stable cells (in words),MDR1 P-glycoprotein mRNA; human,did not induce MDR1 P-glycoprotein expression further
(−)-epigallocatechin gallate [EGCG],fold induction of CYP1A1-promoter-mediated luciferase activity by flavonoids,[7],negligible effects
O=c1c(O)c(-c2ccc(O)cc2)oc2cc(O)cc(O)c12 [kaempferol],"CYP1A1 mRNA level Subject B (%), normalized to TCDD induction","CYP1A1 mRNA [2]; human, 24 h",0%
same,"CYP1A1 mRNA level Subject C (%), normalized to benzanthracene induction","CYP1A1 mRNA [2]; human, 24 h",10%
same,"CYP1A1 mRNA level Subject D (%), normalized to TCDD induction","CYP1A1 mRNA [2]; human, 24 h",0%
same,effect on TCDD-mediated luciferase induction (in words),[5],effectively inhibited
Clc1ccccc1C(c1ccccc1)(c1ccccc1)n1ccnc1 [clotrimazole],luciferase response curve (in words),[6],dose-dependent
O=c1c(O)c(-c2ccc(O)c(O)c2)oc2cc(O)cc(O)c12 [quercetin],induction of CYP1A1 mRNA in isolated hepatocytes (in words),CYP1A1 mRNA [2],did not elicit induction
same,effect on TCDD-mediated luciferase induction (in words),[5],effectively inhibited
